Ten compounds from US6825230B2, “Spiro and dispiro 1,2,4-trixolane antimalarials” (Medicines for Malaria Venture MMV, priority 2002, dated 2004) can be followed below.

SMILES strings stand for the structures.

Experiment [1] has as its system Schistosoma mansoni 21-day-old schistosomules. The experiment can be described thus: Effect on 21-day-old schistosomules in infected mice. Conditions: single 200 mg/kg per os, 21-day-old schistosomules; for % reduction of schistosomule growth at day 21 after per os application of 200 mg/kg, FWR (%): female worm reduction rate; for % reduction of schistosomule growth at day 21 after per os application of 200 mg/kg, TWR (%): total worm reduction rate. In kind it is in vivo. As for the experimental part: Mice were infected with 100 Schistosoma mansoni cercariae on day 21 post-treatment. Each group was treated per os with trioxolanes at a single dose of 200 mg/kg. […] All groups were killed 4 weeks after treatment and the liver and intestine were removed and separated. The liver and intestine were compressed and alive male and female worms could be seen and counted. The effect of the compounds was evaluated by mean total and female worm burden.

Experiment [2] relates to Schistosoma mansoni adult worms (49-day-old). The experiment can be described thus: Effect on adult schistosomes (49-day-old) in infected mice. In kind it is in vivo. To be noted: for % reduction of adult worms growth at day 49 after per os application of 400 mg/kg, TWR (%) / Adult worms day 49, per os 400 mg/kg, DEAD WORM (%): single 400 mg/kg per os. As for the experimental part: Mice were infected with 100 Schistosoma mansoni cercariae on day 49 post-treatment. Each group was treated per os with OZ compounds at single doses of 200, 400, and 600 mg/kg. Untreated mice served as the control. All groups were killed 4 weeks after treatment and the liver and intestine were removed and separated. The liver and intestine were compressed and alive male and female worms could be seen and counted.

[3] abbreviates: 49-day-old adults, total worm reduction rate.
The mark [4] stands for this setting: percentage of dead worm in the liver.

Regarding `C1C2CC3CC1CC(C2)C31OOC2(O1)C1CC3CC(C1)CC2C3` (stereo not drawn) [OZ04], in experiment [1], the “% reduction of schistosomule growth at day 21 after per os application of 200 mg/kg, FWR (%)” value was 7% and the “% reduction of schistosomule growth at day 21 after per os application of 200 mg/kg, TWR (%)” value was found to be 7%. Besides, the “% reduction of adult worms growth at day 49 after per os application of 400 mg/kg, TWR (%)” value in experiment [2] (setting [3]) is listed as 0/0%. Also, in experiment [2] (setting [4]), the “Adult worms day 49, per os 400 mg/kg, DEAD WORM (%)” value is given as 0/0%.

Turning to `OCCC1CCC2(CC1)OOC1(O2)C2CC3CC(C2)CC1C3` (stereo not drawn) [OZ89], in experiment [1], the “% reduction of schistosomule growth at day 21 after per os application of 200 mg/kg, FWR (%)” value stood at 81% and the “% reduction of schistosomule growth at day 21 after per os application of 200 mg/kg, TWR (%)” value turned out to be 86%. For the same compound, the “% reduction of adult worms growth at day 49 after per os application of 400 mg/kg, TWR (%)” value in experiment [2] (setting [3]) was 0%. In addition, the “Adult worms day 49, per os 400 mg/kg, DEAD WORM (%)” value in experiment [2] (setting [4]) stood at 17%.

On to `O=C1CC2CC3(CC2C1)OOC1(O3)C2CC3CC(C2)CC1C3` (stereo not drawn) [OZ12], for which, in experiment [1], the “% reduction of schistosomule growth at day 21 after per os application of 200 mg/kg, FWR (%)” value was 79% and the “% reduction of schistosomule growth at day 21 after per os application of 200 mg/kg, TWR (%)” value was 78%. In addition, the “% reduction of adult worms growth at day 49 after per os application of 400 mg/kg, TWR (%)” value in experiment [2] (setting [3]) was 14%. The “Adult worms day 49, per os 400 mg/kg, DEAD WORM (%)” value in experiment [2] (setting [4]) turned out to be 0%.

For `C1COC2(CCC3(CC2)OOC2(O3)C3CC4CC(C3)CC2C4)O1` (stereo not drawn) [OZ10], in experiment [1], the “% reduction of schistosomule growth at day 21 after per os application of 200 mg/kg, FWR (%)” value is on record as 73% and the “% reduction of schistosomule growth at day 21 after per os application of 200 mg/kg, TWR (%)” value stood at 66%. Besides, in experiment [2] (setting [3]), the “% reduction of adult worms growth at day 49 after per os application of 400 mg/kg, TWR (%)” value stood at 28%. Further, the “Adult worms day 49, per os 400 mg/kg, DEAD WORM (%)” value in experiment [2] (setting [4]) came to 13%. Also, the “% reduction of adult worms growth at day 49 after per os application of 600 mg/kg, TWR (%)” value in experiment [2] (single 600 mg/kg per os, 49-day-old adults, total worm reduction rate) came to 21%. The “Adult worms day 49, per os 600 mg/kg, DEAD WORM (%)” value in experiment [2] (single 600 mg/kg per os, percentage of dead worm in the liver) is recorded as 23%.

Take `C1CC2(CCN1)OOC1(O2)C2CC3CC(C2)CC1C3.Cl` (stereo not drawn) [OZ80]: in experiment [1], the “% reduction of schistosomule growth at day 21 after per os application of 200 mg/kg, FWR (%)” value stood at 75% and the “% reduction of schistosomule growth at day 21 after per os application of 200 mg/kg, TWR (%)” value is given as 79%. In addition, the “% reduction of adult worms growth at day 49 after per os application of 200 mg/kg, TWR (%)” value in experiment [2] (single 200 mg/kg per os, 49-day-old adults, total worm reduction rate) was 0%. The “Adult worms day 49, per os 200 mg/kg, DEAD WORM (%)” value in experiment [2] (single 200 mg/kg per os, percentage of dead worm in the liver) stood at 3%.

Consider `c1ccc2c(c1)COC1(CCC3(CC1)OOC1(O3)C3CC4CC(C3)CC1C4)OC2` (stereo not drawn) [OZ31], for which, in experiment [1], the “% reduction of schistosomule growth at day 21 after per os application of 200 mg/kg, FWR (%)” value turned out to be 63% and the “% reduction of schistosomule growth at day 21 after per os application of 200 mg/kg, TWR (%)” value came to 60%. Besides, in experiment [2] (setting [3]), the “% reduction of adult worms growth at day 49 after per os application of 400 mg/kg, TWR (%)” value was 4/4%. The “Adult worms day 49, per os 400 mg/kg, DEAD WORM (%)” value in experiment [2] (setting [4]) was 4/4%.

As for `CC(C)(C)C1CCC2(CC1)OOC1(O2)C2CC3CC(C2)CC1C3` (stereo not drawn) [OZ18], in experiment [1], the “% reduction of schistosomule growth at day 21 after per os application of 200 mg/kg, FWR (%)” value was found to be 9% and the “% reduction of schistosomule growth at day 21 after per os application of 200 mg/kg, TWR (%)” value was 12%. Also, in experiment [2] (setting [3]), the “% reduction of adult worms growth at day 49 after per os application of 400 mg/kg, TWR (%)” value was 0/0%. In addition, the “Adult worms day 49, per os 400 mg/kg, DEAD WORM (%)” value in experiment [2] (setting [4]) is 0/0%.

Take `CC1(C)COC2(CCC3(CC2)OOC2(CC(C)(C)CC(C)(C)C2)O3)OC1` [OZ36]: in experiment [1], the “% reduction of schistosomule growth at day 21 after per os application of 200 mg/kg, FWR (%)” value came to 12% and the “% reduction of schistosomule growth at day 21 after per os application of 200 mg/kg, TWR (%)” value was found to be 16%. For the same compound, the “% reduction of adult worms growth at day 49 after per os application of 400 mg/kg, TWR (%)” value in experiment [2] (setting [3]) is 0/0%. In addition, in experiment [2] (setting [4]), the “Adult worms day 49, per os 400 mg/kg, DEAD WORM (%)” value is recorded as 0/0%.

As for `CON=C1CCC2(CC1)OOC1(O2)C2CC3CC(C2)CC1C3` (stereo not drawn) [OZ15], in experiment [1], the “% reduction of schistosomule growth at day 21 after per os application of 200 mg/kg, FWR (%)” value was 70% and the “% reduction of schistosomule growth at day 21 after per os application of 200 mg/kg, TWR (%)” value was 63%. Further, in experiment [2] (setting [3]), the “% reduction of adult worms growth at day 49 after per os application of 400 mg/kg, TWR (%)” value was 0%. The “Adult worms day 49, per os 400 mg/kg, DEAD WORM (%)” value in experiment [2] (setting [4]) is listed as 10%.

Regarding `CCCC1CCC2(CC1)OOC1(O2)C2CC3CC(C2)CC1C3` (stereo not drawn) [OZ25], in experiment [1], the “% reduction of schistosomule growth at day 21 after per os application of 200 mg/kg, FWR (%)” value is 84% and the “% reduction of schistosomule growth at day 21 after per os application of 200 mg/kg, TWR (%)” value came to 86%. Further, the “% reduction of adult worms growth at day 49 after per os application of 400 mg/kg, TWR (%)” value in experiment [2] (setting [3]) was determined as 46%. The “Adult worms day 49, per os 400 mg/kg, DEAD WORM (%)” value in experiment [2] (setting [4]) was 34%.
